Measurements reported in patent publication US20210340177A1, “BIOACTIVE PEPTIDES HAVING HIGH BINDING AFFINITY TO HUMAN MUSCULAR NICOTINIC ACETYLCHOLINE RECEPTOR” (priority 2020, published 2021).

Key:
muscle cells = assay type: cell-based; conditions: for Contraction of muscle cells after the washing step (reversibility): incubation for 24 hours followed by a washing step
Method: The efficacy of peptides V0083091A (KKYK; SEQ ID NO: 1) and V0083092A (KWKK; […]. Muscle cells were incubated or treated without (control) or with compounds, for example, peptides V0083091A and V0083092A, and contraction of the muscle cells was evaluated after incubation for 5 hours, after incubation for 24 hours, or after incubation for 24 hours followed by a washing step.

[1] = system: Human epidermal keratinocytes (HEKs); assay: MTT assay on human epidermal keratinocytes in in vitro cultures; conditions: 24 hours after treatment
[2] = biological target: human muscular nicotinic acetylcholine receptor (HmnAChR) (Homo sapiens, UniProt P02708+Q04844); assay: Binding energy of peptides in the HmnAChR binding site over runs of genetic algorithm; conditions: Table 3, difference of binding energies (no unit printed in Table 3)
[3] = biological target: human muscular nicotinic acetylcholine receptor (HmnAChR) (human)
human muscular nicotinic acetylcholine receptor (HmnAChR) (human), sequence (P02708 21-457, chain 1 of 4): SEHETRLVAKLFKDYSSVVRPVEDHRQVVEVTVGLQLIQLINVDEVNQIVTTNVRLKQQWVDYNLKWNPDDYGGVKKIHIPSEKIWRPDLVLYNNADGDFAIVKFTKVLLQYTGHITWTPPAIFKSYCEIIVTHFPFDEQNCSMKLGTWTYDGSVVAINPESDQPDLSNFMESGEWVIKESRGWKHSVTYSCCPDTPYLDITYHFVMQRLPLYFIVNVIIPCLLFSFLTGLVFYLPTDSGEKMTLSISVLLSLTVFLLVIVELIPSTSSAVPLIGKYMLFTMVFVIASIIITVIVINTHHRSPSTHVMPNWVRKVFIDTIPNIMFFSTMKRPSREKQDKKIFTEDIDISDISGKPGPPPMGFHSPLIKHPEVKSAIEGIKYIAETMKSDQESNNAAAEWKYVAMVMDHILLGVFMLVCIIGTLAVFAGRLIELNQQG
human muscular nicotinic acetylcholine receptor (HmnAChR) (human), sequence (P11230 24-501, chain 2 of 4, further chain): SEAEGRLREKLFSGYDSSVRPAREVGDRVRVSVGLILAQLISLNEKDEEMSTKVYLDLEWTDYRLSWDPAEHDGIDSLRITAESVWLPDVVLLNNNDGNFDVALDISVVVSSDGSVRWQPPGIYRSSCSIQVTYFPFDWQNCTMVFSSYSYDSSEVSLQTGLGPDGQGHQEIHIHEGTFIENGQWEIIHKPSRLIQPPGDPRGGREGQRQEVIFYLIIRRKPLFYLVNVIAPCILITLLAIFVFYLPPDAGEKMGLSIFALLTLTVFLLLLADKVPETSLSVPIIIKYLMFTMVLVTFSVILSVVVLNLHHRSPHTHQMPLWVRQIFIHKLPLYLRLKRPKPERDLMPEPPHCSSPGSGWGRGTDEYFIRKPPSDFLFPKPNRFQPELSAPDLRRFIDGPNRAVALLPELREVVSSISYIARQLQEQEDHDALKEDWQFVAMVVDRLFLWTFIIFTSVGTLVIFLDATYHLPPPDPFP
human muscular nicotinic acetylcholine receptor (HmnAChR) (human), sequence (Q07001 22-517, chain 3 of 4, further chain): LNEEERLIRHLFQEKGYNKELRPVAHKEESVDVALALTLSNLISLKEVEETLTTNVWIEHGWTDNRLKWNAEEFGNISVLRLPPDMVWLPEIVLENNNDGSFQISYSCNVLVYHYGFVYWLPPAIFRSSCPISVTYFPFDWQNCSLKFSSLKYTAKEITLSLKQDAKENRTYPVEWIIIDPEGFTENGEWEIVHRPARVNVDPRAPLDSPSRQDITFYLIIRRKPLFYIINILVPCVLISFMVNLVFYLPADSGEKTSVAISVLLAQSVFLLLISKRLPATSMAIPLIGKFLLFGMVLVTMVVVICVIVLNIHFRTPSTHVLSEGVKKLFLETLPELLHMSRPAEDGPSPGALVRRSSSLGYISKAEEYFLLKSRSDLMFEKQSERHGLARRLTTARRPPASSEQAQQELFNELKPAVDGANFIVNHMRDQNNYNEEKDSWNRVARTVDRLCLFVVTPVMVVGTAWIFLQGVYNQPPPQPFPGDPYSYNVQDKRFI
human muscular nicotinic acetylcholine receptor (HmnAChR) (human), sequence (Q04844 21-493, chain 4 of 4, further chain): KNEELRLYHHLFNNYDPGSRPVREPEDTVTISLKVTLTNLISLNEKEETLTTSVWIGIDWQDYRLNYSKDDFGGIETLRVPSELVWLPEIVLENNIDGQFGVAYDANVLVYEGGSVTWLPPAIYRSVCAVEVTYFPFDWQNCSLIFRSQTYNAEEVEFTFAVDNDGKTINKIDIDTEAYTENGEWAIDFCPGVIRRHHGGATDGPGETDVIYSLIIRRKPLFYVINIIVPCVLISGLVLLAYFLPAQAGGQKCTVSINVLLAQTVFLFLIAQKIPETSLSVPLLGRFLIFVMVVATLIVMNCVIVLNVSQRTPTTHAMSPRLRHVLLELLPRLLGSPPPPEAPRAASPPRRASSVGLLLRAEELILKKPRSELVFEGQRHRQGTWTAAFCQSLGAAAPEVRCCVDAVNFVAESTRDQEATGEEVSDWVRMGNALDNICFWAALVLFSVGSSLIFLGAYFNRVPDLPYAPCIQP

human muscular nicotinic acetylcholine receptor (HmnAChR), sequence (P02708 21-457): as the sequence (P02708 21-457, chain 1 of 4) above
human muscular nicotinic acetylcholine receptor (HmnAChR), sequence (Q04844 21-493): as the sequence (Q04844 21-493, chain 4 of 4, further chain) above
human muscular nicotinic acetylcholine receptor (HmnAChR), sequence (P11230 24-501 partner): as the sequence (P11230 24-501, chain 2 of 4, further chain) above
human muscular nicotinic acetylcholine receptor (HmnAChR), sequence (Q07001 22-517 partner): as the sequence (Q07001 22-517, chain 3 of 4, further chain) above

In the case of `C/C=C/C=C\CC/C=C/C(=O)NCC(C)C` [spilanthol], the “Inhibition of contraction of muscle cells, effect size” value (muscle cells; 1 μM or 10 μM, 5 or 24 hours after incubation, p value<5%) is reported as 1.5-2 and the “Contraction of muscle cells after the washing step (reversibility)” value (muscle cells) is reported as “inhibitory effect was lost”.

Lys-Lys-Tyr-Lys [Peptide V0083091A] was tested, and the “Proliferation of the HEKs” value [1] was “induced proliferation”, the “Inhibition effect on muscle cell contraction” value (muscle cells; 1 μM, observable after incubation for 24 hours) was “much less inhibition effect” and the “Contraction of muscle cells after the washing step (reversibility)” value (muscle cells) was “no clear recovery of the contraction power”.

“dipeptide diaminobutyroyl benzylamide diacetate [SYN ®-AKE]” was tested, and the “(Best Result − Average)” value [2] was -3.01 kcal/mol.

peptide V0083091A (KKYK; SEQ ID NO: 1) gave a Binding Energy, All 100 Average [3] of -8.39 kcal/mol, a Binding Energy, Best Result [3] of -11.4 kcal/mol and a Binding Energy, Top 10 Average [3] of -10.2 kcal/mol.
